This is an account of results in paper PMC9692855, “Amaryllidaceae Alkaloids from Clivia miniata (Lindl.) Bosse (Amaryllidaceae): Isolation, Structural Elucidation, and Biological Activity” (Plants, 2022).

For assay [1], the target named is human recombinant AChE (E.C. 3.1.1.7) (Homo sapiens, UniProt P22303). Nature of the assay: biochemical. The conditions noted are these: for inhibition at 100 µM: read-out: % Inhibition hAChE ± SEM.
The target of assay [2] is human plasma BuChE (E.C. 3.1.1.8) (Homo sapiens, UniProt P06276). Briefly: biochemical. The conditions noted are these: for inhibition at 100 µM: read-out: % Inhibition hBuChE ± SEM.
human plasma BuChE (E.C. 3.1.1.8), sequence (P06276 29-602): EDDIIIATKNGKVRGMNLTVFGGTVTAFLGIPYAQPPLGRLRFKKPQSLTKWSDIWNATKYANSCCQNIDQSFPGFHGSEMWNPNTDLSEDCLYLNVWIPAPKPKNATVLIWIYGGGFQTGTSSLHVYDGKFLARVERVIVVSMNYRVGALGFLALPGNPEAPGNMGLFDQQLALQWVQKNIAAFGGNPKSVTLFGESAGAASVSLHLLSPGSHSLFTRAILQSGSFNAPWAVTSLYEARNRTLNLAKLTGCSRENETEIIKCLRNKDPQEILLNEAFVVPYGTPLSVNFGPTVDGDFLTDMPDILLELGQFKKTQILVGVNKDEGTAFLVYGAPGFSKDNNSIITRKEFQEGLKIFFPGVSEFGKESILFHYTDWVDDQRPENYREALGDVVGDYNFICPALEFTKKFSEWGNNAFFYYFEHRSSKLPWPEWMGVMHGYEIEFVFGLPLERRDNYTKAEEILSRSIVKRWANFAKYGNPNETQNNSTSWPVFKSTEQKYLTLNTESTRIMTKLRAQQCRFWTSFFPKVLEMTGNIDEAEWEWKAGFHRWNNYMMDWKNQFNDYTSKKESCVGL
Where [3] appears, read: mean ± SEM of three independent measurements, each in triplicate, read-out: IC50 hAChE ± SEM.
Where [4] appears, read: tested at 100 µM compound concentration.
[5] abbreviates: mean ± SEM of three independent measurements, each in triplicate, read-out: IC50 hBuChE ± SEM.

Where two headings read alike, the source gives them in different places. A value given as a limit tells only on which side of the number the result lay.

human recombinant AChE (E.C. 3.1.1.7), sequence (P22303 32-614): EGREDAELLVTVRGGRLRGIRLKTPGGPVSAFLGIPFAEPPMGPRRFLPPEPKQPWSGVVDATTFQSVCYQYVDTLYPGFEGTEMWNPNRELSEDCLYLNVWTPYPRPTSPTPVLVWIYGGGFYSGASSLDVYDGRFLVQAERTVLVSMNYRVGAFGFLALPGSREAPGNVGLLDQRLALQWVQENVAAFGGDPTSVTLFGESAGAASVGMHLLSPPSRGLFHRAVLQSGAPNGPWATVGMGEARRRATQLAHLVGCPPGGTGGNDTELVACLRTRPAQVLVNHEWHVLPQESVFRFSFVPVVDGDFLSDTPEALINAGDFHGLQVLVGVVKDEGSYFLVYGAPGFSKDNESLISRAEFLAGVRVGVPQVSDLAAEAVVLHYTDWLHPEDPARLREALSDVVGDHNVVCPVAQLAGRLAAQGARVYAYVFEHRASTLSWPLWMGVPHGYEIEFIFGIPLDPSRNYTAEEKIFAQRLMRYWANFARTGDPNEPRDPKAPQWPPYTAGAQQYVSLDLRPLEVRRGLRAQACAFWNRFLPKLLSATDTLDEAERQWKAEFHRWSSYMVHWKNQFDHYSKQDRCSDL

Regarding `CN1CC[C@@H]2C[C@H](O)[C@@H]3OC(=O)c4cc5c(cc4[C@H]3[C@@H]21)OCO5` [clivonine (6), clivonine], in assay [1], the IC50 is greater than 100 µM and the inhibition at 100 µM is 34.4 ± 1.68%. In addition, in assay [2], the IC50 is greater than 100 µM and the inhibition at 100 µM came out at 28.2 ± 6.63%.

Regarding `COC(=O)c1cc(C(=O)O[C@H]2C[C@H]3CCN(C)[C@H]3[C@@H]3c4cc5c(cc4C(=O)O[C@H]32)OCO5)c(C)nc1C` [cliniatine C (4), cliniatine C], the IC50 in assay [1] (setting [3]) and in assay [2] (setting [5]) was greater than 100 µM in each case. The figures for the inhibition at 100 µM in assay [1] (setting [4]) and in assay [2] (setting [4]) were 5.72 ± 0.53% and 9.43 ± 1.23%, respectively.

For the molecule `CC(O)CC(=O)O[C@H]1C[C@H]2CCN(C)[C@H]2[C@@H]2c3cc4c(cc3C(=O)O[C@H]21)OCO4` (some centres unmarked) [nobilisitine B (14), nobilisitine B], the IC50 in assay [1] (setting [3]) and in assay [2] (setting [5]) was greater than 100 µM in each case. Besides, the inhibition at 100 µM in assay [1] (setting [4]) was determined as 40 ± 1.13%; in assay [2] (setting [4]), 12.6 ± 0.53%.

Take `COc1cc2c(cc1O)C(=O)N1CCC3=C[C@H](O)[C@@H](OC(C)=O)[C@@H]2[C@@H]31` [sternbergine (17), sternbergine]: the inhibition at 100 µM in assay [1] worked out at 1.25 ± 0.23%; in assay [2], 23.5 ± 2.28%. For the same molecule, the IC50 in assay [1] (read-out: IC50 hAChE ± SEM) and in assay [2] (setting [5]) was greater than 100 µM throughout.

For `Cc1nc(C)c(C(=O)OC2CC3CCN(C)C3C3c4cc5c(cc4C(=O)OC23)OCO5)cc1C(=O)OC1CC2CCN(C)C2c2c1oc(=O)c1cc3c(cc21)OCO3` (centres unmarked) [clivimine B (3), clivimine B], the IC50 in assay [1] (setting [3]) and in assay [2] (setting [5]) was greater than 100 µM in each case. In addition, the results for the inhibition at 100 µM in assay [1] (setting [4]) and in assay [2] (setting [4]) were 10.1 ± 5.37% and 7.69 ± 2.56%, respectively.

For `COc1cc2c(cc1O)CN1CCC23C=CC(OC(C)=O)CC13` (centres unmarked) [3-O-acetyl-8-O-demethylmaritidine (12), 3-O-acetyl-8-O-demethylmaritidine], in assay [1], the IC50 was greater than 100 µM and the inhibition at 100 µM turned out to be 12.3 ± 1.29%. Moreover, in assay [2], the IC50 was greater than 100 µM and the inhibition at 100 µM turned out to be 10.3 ± 2.06%.

Take `COc1ccc2c3c1O[C@H]1C[C@@H](O)C=C[C@@]31CCN(C)C2` [galanthamine, reference compound]: the inhibition at 100 µM in assay [2] came out at 68.2 ± 1.24%.

With `Cc1nc(C)c(C(=O)O[C@H]2C[C@H]3CCN(C)[C@H]3[C@@H]3c4cc5c(cc4C(=O)O[C@H]32)OCO5)cc1C(=O)O[C@H]1C[C@H]2CCN(C)[C@H]2[C@@H]2c3cc4c(cc3C(=O)O[C@H]21)OCO4` [clivimine (2), clivimine], the IC50 in assay [1] (setting [3]) and in assay [2] (setting [5]) was greater than 100 µM in each case. In addition, the results for the inhibition at 100 µM in assay [1] (setting [4]) and in assay [2] (setting [4]) were 9.62 ± 1.75% and 15.2 ± 8.23%, respectively.
